Source: US6815450B2, “Axon regeneration with PKC inhibitors” (Children's Medical Center Corporation, priority 2002, dated 2004)

Columns and labels:
[1] = tested on: CGNs, DRG sensory neurons or NG108 cells on immobilized CNS myelin; test: neurite outgrowth assay on CNS myelin substrate; type: cell-based, rat
Experimental: To assess the functional relevance of the activation of the PI3K, MEK and PLC-g pathways, we utilized a standard neurite outgrowth assay in which NG108 cells or cerebellar granule neurons (CGN) from postnatal day 7-9 (P7-9) rats were grown on immobilized recombinant MAG or myelin (5-10, 16). Pharmacological inhibitors of the individual pathways—LY294002 and wortmannin for PI3K, U0126 for MEK, and U73122 for PLC-g, were then added to assess whether and to what extent these inhibitors could overcome the inhibitory activity of MAG or of myelin. […] As MEK has been previously shown to be required for axon growth induced by chronic exposure to neurotrophins (14), but not for growth cone turning in acute responses to NGF gradients (12), our results of abolishing MAG inhibition by an MEK inhibitor imply that the MEK pathway can be required only for neurite outgrowth in response to external cues.
Based on the modulation of neurite outgrowth by modulating PKC activity, we predicted that inhibiting PKC activity might abolish or convert the inhibitory responses of neurons to MAG and other myelin-associated inhibitors. […] Based on existing evidence for the functional interactions between the PKA and PKC pathways (24), we conclude that both PKA and PKC act through parallel mechanisms in affecting neurite outgrowth. Although many PKC isoforms are expressed in the nervous system (25), our observations with phorbol ester and selective PKC inhibitors indicate the involvement of at least classical PKC isoforms whose activation is dependent on diacylglycerol (DAG) and calcium (24).
Screening for compounds that allow neurite outgrowth from postnatal day 7-9 rat cerebellar granule neurons (CGNs) on CNS myelin substrates, we identified several broad-specificity PKC inhibitors from a small molecule libraries. Based on their structure and substrate requirements, PKC isoforms can be divided into three classes: the Ca++ and second messenger diacylglycerol (DAG)-sensitive conventional PKCs (-α, -β, and -γ), the Ca++-independent but DAG-dependent novel PKCs (-δ, -ε, -η, -θ, and -μ), and the Ca++- and DAG-insensitive atypical PKCs (-ζ and -λ). We first examined PKC inhibitors with a higher specificity for the conventional class of PKC isotypes for their ability to promote neurite outgrowth on CNS myelin. These inhibitors included Chelerythrine, Calphostin, Bisindoleylmaleimide I, and Gö6976. Dose response experiments (in the range of 10 nM to 10 uM) were carried out for each PKC inhibitor.

[2] = tested on: P7 rat CGNs injected into the ventral funiculus of the adult rat spinal cord; test: intra white matter transplantation of CGNs; type: in vivo; conditions: two weeks after transplantation; CGNs pretreated with 50 nM
Experimental: We thus injected vehicle or Gö6976-treated P7 rat CGNs into the ventral funiculus of the adult rat spinal cord and examined neurite outgrowth of these transplanted neurons within the white matter that is largely composed of myelinated axons (26).
26. Intra white matter transplantation of CGNs. P7 CGN (50,000 cells/ml) were prelabeled with Cell Tracker CM-DiI (1 mM; Molecular Probes, Eugene, Oreg.), pretreated with PBS or 50 nM Gö6976, and microinjected at the level of T9 into the spinal cord ventral funiculus of adult Sprague-Dawley rats ([…]; N=3 for each group). Two pieces of 2 mm^3 gelfoam (Pharmacia & Upjohn, Kalamazoo, Mich.) soaked with PBS or 500 nM Gö6976 were placed onto the spinal dura where the penetration for cell injection occurred. Spinal cords (8 mm in length centered around the CGN injection site) were collected 2 weeks after surgery, and […] sagittal sections were made. DiI positive CGNs were examined with a fluorescent microscope (Omega XF-32 optical filter) in all sections of each cord to evaluate cell survival (27). Percentages of the neurite-bearing CGNs and CGNs with neurites longer than twice the soma length were quantified among 400 CGNs from a single […] of each cord that had the highest number of neurite-bearing CGNs.

[3] = tested on: CGNs on MAG, Nogo-A and OMgp; test: neurite outgrowth on individual myelin inhibitors; type: cell-based, rat
Experimental: […] Based on their structure and substrate requirements, PKC isoforms can be divided into three classes: the Ca++ and second messenger diacylglycerol (DAG)-sensitive conventional PKCs (-α, -β, and -γ), the Ca++-independent but DAG-dependent novel PKCs (-δ, -ε, -η, -θ, and -μ), and the Ca++- and DAG-insensitive atypical PKCs (-ζ and -λ). […] These inhibitors included Chelerythrine, Calphostin, Bisindoleylmaleimide I, and Gö6976. Dose response experiments (in the range of 10 nM to 10 uM) were carried out for each PKC inhibitor.

RhoA = RhoA pull down assay in stimulated CGNs; type: cell-based, rat; conditions: cultured CGNs
Source text: We also assessed whether individual inhibitors affect endogenous PKC activity in treated neurons. […] To further confirm the role of PKC as a direct signaling mediator, we examined whether PKC activation by myelin inhibitors is dependent on NgR, a required receptor component for all of the three major myelin inhibitors. Thus, we used recombinant retroviruses to overexpress full-length or dominant negative NgR in CGNs and examined PKC activation in these transduced neurons by NgR ligands. […] An additional and critical signaling event shared by these inhibitory activities is the activation of the small GTPase RhoA. In order to determine the relationship between PKC and RhoA in these pathways, we stimulated cultured CGNs with MAG-Fc, AP-Nogo-66 or CSPG in the presence or absence of Gö6976 and examined the RhoA activation in these conditions by subjecting the resulting cell lysates to a RhoA pull down assay. […] Thus, conventional PKCs participate in transducing the inhibitory signals of both myelin inhibitors and CSPG from their specific cell surface receptors to activate RhoA.

[4] = tested on: dorsal column ascending axons; test: dorsal column axonal regeneration after C3-4 spinal dorsal hemisection; type: in vivo, adult rats
Experimental: To assess the contribution of PKC mediated inhibitory effects on axon regeneration in vivo, we examined whether intrathecal infusion of Gö6976 affected regeneration of dorsal column ascending axons following spinal cord dorsal hemisection in adult rats. The hemisection was performed between the 3rd and 4th cervical spinal segments (C3-4) to a depth of 1.6 mm from the dorsal surface of the cord using a VibraKnife device that can be used to precisely control the lesion depth stereotaxically. To ensure that bilateral dorsal columns were completely transected, the lesion was advanced ventrally to the level of central cannel resulting in the transection of the entire dorsal half of the spinal cord. After the lesion, dura mater was sutured to restore cerebespinal fluid circulation and to prevent connective tissue invasion. Intrathecal delivery of Gö6976 (20 uM) or saline vesicle into the lesion site was achieved by constant infusion of the compound at a rate of 0.5 ul/hr for 14 days using an Alzet mini-osmotic pump (Model 2002). Five weeks after surgery, a narrow lesion gap through the dorsal half of the cord was clearly seen, confirming the completeness of dorsal column transection. […] Anatomical regeneration of injured dorsal column axons was assessed by anterograde tracing of Cholera toxin B subunit (CTB) which was injected into bilateral sciatic nerves and brachial plexuses.

Cn1c2ccccc2c2c3c(c4c5ccccc5n(CCC#N)c4c21)CNC3=O [Gö6976]
neurite outgrowth on immobilized CNS myelin ([1]; P7-9 rat CGNs and DRG sensory neurons): profoundly affected neurite outgrowth by enhancing both the number of neurite-bearing cells and the length of neurites | neurite outgrowth on a CNS myelin substrate ([1]; P7-9 rat CGNs, 100 nM): profoundly mitigated outgrowth inhibition and promoted significant neurite outgrowth | donor neurons bearing neurites [2]: 85% | neurite-bearing neurons with neurites longer than twice their soma diameters [2]: 80% | neurite outgrowth inhibition induced by MAG, Nogo-A and OMgp [3]: efficiently overcame neurite outgrowth inhibition | MAG-Fc, AP-Nogo-66 and CSPG induced RhoA activation (RhoA): blocked MAG-Fc, AP-Nogo-66 and CSPG induced RhoA activation in a dose dependent manner | regeneration of CTB-labeled dorsal column axons across the lesion ([4]; 20 uM intrathecal, 0.5 ul/hr for 14 days, five weeks after surgery): CTB-labeled axons were seen to cross the lesion gap and grow within the distal host spinal cord for a considerable distance | distance distal to the injury at which many regenerated axons ended ([4]; 20 uM intrathecal, 0.5 ul/hr for 14 days, longest distance examined): 7 mm | functional connections and recovery ([4]; subsequent studies): improves physiological and behavioral recovery
